{"source": "patent US20220282304A1", "about": "“SAME-SAMPLE ANTIBIOTIC SUSCEPTIBILITY TEST AND RELATED COMPOSITIONS, METHODS AND SYSTEMS” (CALIFORNIA INSTITUTE OF TECHNOLOGY, priority 2021, published 2022)", "tested_on": "Escherichia coli K12", "test": "Digital same-sample filtration AST at four exposure durations (Example 8)", "type": "cell-based", "conditions": "for Both (number of wells) / Empty (number of wells) / Extracellular only (number of wells) / Intracellular only (number of wells) / Intact (most likely number of cells) / Killed (most likely number of cells): Treated 1.0 μg ETP/mL; for Both (number of wells) / Empty (number of wells) / Extracellular only (number of wells) / Intracellular only (number of wells): 12 partitions, qPCR; for Intact (most likely number of cells) / Killed (most likely number of cells): assuming one cell per non-empty sample", "method": "The inoculum was small enough that no detectable difference in the sample's optical density at 600 mm (OD600) was detectable by a spectrophotometer with a sensitivity of 0.01 absorbance units. After an incubation at 37° C., the media became turbid with an OD600 of 0.34 absorbance units after 3.08 hours of incubation.\nIn this experiment, the number and volume of sample partitions was restricted, for logistical reasons, to 96 partitions 10 μL in volume, specifically the wells of a 96-well plate. A goal was chosen of having a >98% chance of ending up with at least 48 empty partitions. When all partitions are the same volume, the following formula relates the expected number of empty partitions, the partition volume, and the density of cells.\nN is the total number of partitions, n is the number of empty partitions, V is the partition volume, D is the density of cells, and t is a threshold probability chosen by the practitioner. In order to achieve digital sample partitioning with the available 96-well plate, each 10 μL sample of the specimen needed to contain between 0.02 and 2.5 cells on average. In this experiment, a density of 1 cells per sample were targeted. Due to systematic bias in the conversion of OD600 to cell density, the actual density achieved in the exposure was closer to 0.281 cells per sample. The batch culture specimen itself was diluted to a density of 28.1 CFU/mL (0.0281 cells/μL) to achieve the target cells/sample density.\nTo begin the AST protocol, the contrived clinical specimen (containing 28.1 CFU/mL) was physically partitioned into the 96 samples by transferring 10 μL of the specimen, in 96 separate transfers (actually […] with a multichannel pipette), to each well of a separable 96-well microtiter plate. Then, the entire plate was sealed with a RNase/DNase-free plastic, adhesive sealing membrane.\nEach well of the 96-well microtiter plate contained 15 μL of Mueller-Hinton Broth (MHB) growth media, placed there before the specimen was partitioned. Half of the wells (48) contained 0 μg/mL of dissolved ETP antibiotic and served as reference condition antibiotic exposures. The other half of the wells contained 1.67 μg/mL of ETP (for a final concentration of 1.0 μg/mL) and served as 48 treated condition antibiotic exposures. The separable plate comprised 4 detachable sections bearing 3 columns and 8 rows of wells.\nThe treated and reference conditions were arranged so that each of the four groups of wells contained 12 treated and 12 reference conditions. In total, there would eventually be eight experimental conditions: 4 exposure durations of 0, 30, 60, and 120 min, each with 12 treated and 12 reference conditions.\nImmediately after the specimen had been partitioned, one section (24 wells in total) of the separable 96-well plate was detached to serve as the 0-minute set of conditions. The rest of the separable 96-well plate was incubated at 37° C. Then, the following step was repeated for each time point of 0, 30, 60, and 120 minutes.\nThe entire volume of each antibiotic exposure was transferred to a Millipore® 96-well sterile polystyrene MultiScreenHTS® filter plate (Millipore-Sigma MSGVS2210). Each well of the filter plate contained a hydrophilic polyvinylidene fluoride (PVDF) filter membrane with a 0.22 μm pore size. A 96-well polypropylene microtiter plate was affixed to the bottom of the filter plate. The filter plate was promptly centrifuged at 2200 relative centrifugal force for 3 minutes to speed the passage of the antibiotic exposure sample through the filter and into 96-well microtiter plate. The collected fluid was called the “filtrate.” […]"}
{"smiles": "C[C@@H](O)[C@H]1C(=O)N2C(C(=O)O)=C(S[C@@H]3CN[C@H](C(=O)Nc4cccc(C(=O)O)c4)C3)[C@H](C)[C@H]12", "note": "[ETP, ertapenem]", "values": [{"measurement": "susceptibility call", "setting": "1.0 μg/mL ETP, overall p-value vs 0.005", "value": "susceptible"}, {"measurement": "Both (number of wells)", "setting": "exposure duration 0 min", "value": 0}, {"measurement": "Empty (number of wells)", "setting": "exposure duration 0 min", "value": 12}, {"measurement": "Extracellular only (number of wells)", "setting": "exposure duration 0 min", "value": 0}, {"measurement": "Intracellular only (number of wells)", "setting": "exposure duration 0 min", "value": 0}, {"measurement": "Intact (most likely number of cells)", "setting": "exposure duration 0 min", "value": 0}, {"measurement": "Killed (most likely number of cells)", "setting": "exposure duration 0 min", "value": 0}, {"measurement": "Both (number of wells)", "setting": "exposure duration 30 min", "value": 0}, {"measurement": "Empty (number of wells)", "setting": "exposure duration 30 min", "value": 7}, {"measurement": "Extracellular only (number of wells)", "setting": "exposure duration 30 min", "value": 4}, {"measurement": "Intracellular only (number of wells)", "setting": "exposure duration 30 min", "value": 1}, {"measurement": "Intact (most likely number of cells)", "setting": "exposure duration 30 min", "value": 1}, {"measurement": "Killed (most likely number of cells)", "setting": "exposure duration 30 min", "value": 4}, {"measurement": "Both (number of wells)", "setting": "exposure duration 60 min", "value": 0}, {"measurement": "Empty (number of wells)", "setting": "exposure duration 60 min", "value": 8}, {"measurement": "Extracellular only (number of wells)", "setting": "exposure duration 60 min", "value": 4}, {"measurement": "Intracellular only (number of wells)", "setting": "exposure duration 60 min", "value": 0}, {"measurement": "Intact (most likely number of cells)", "setting": "exposure duration 60 min", "value": 0}, {"measurement": "Killed (most likely number of cells)", "setting": "exposure duration 60 min", "value": 4}, {"measurement": "Both (number of wells)", "setting": "exposure duration 120 min", "value": 0}, {"measurement": "Empty (number of wells)", "setting": "exposure duration 120 min", "value": 8}, {"measurement": "Extracellular only (number of wells)", "setting": "exposure duration 120 min", "value": 4}, {"measurement": "Intracellular only (number of wells)", "setting": "exposure duration 120 min", "value": 0}, {"measurement": "Intact (most likely number of cells)", "setting": "exposure duration 120 min", "value": 0}, {"measurement": "Killed (most likely number of cells)", "setting": "exposure duration 120 min", "value": 4}]}
